Data taken from patent US8772312B2, “Heterocyclic compounds as CRTH2 receptor antagonists” (CSPC Zhongqi Pharmaceutical Technology (Shijiazhuang) Co., …, priority 2007, dated 2014).

Tests used:
CRTH2 [1] = target: T1, CRTH2 (Homo sapiens, UniProt Q9Y5Y4); assay: MDS Prostanoid CRTH2 Binding Assay (Catalog #268030), radioligand binding; conditions: 20 nM of tested compound; ligand 1 nM [3H]PGD2; human recombinant CHO-K1 cells; 2 hours @ 25° C.
T1 construct: host or cells: CHO-K1
T1 sequence (Q9Y5Y4 1-395): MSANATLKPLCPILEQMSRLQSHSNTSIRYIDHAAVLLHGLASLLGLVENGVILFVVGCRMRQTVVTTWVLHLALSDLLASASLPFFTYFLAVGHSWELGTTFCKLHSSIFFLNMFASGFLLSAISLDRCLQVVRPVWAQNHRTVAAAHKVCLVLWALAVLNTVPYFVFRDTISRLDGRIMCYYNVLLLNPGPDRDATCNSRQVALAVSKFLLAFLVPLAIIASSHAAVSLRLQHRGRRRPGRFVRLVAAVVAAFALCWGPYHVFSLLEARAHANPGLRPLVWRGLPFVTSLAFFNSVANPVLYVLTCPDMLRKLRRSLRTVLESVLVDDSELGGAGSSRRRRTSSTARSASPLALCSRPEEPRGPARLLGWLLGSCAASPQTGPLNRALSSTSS
Protocol: The CRTH2 binding affinity of compounds of Formula I were assayed by MDS Pharma Service using the following reagents and conditions:
• MDS Prostanoid CRTH2 Binding Assay (Catalog #268030): • Source: Human recombinant CHO-K1 cells • Ligand: 1 nM [^3H]

CRTH2 [2] = target: T1, CRTH2; conditions: radioligand [3H] Prostaglandin D2; historical value of the MDS assay; cited from earlier work

| SMILES | % inhibition of PGD2 binding (CRTH2 [1]) [%] | Kd (CRTH2 [2]) [nM] |
| --- | --- | --- |
| CN(C1CCc2c(CC(=O)O)c3ccc(Cl)nc3n2C1)S(=O)(=O)c1ccc(F)cc1 (single isomer, unassigned) [Example 2A] | 97 | – |
| CN(C1CCc2c(CC(=O)O)c3ccc(Cl)nc3n2C1)S(=O)(=O)c1ccc(F)cc1 (single isomer, unassigned) [Example 2B] | 0 | – |
| CN(C1CCc2c(CC(=O)O)c3cccnc3n2C1)S(=O)(=O)c1ccc(F)cc1 (single isomer, unassigned) [Example 4A] | 91 | – |
| CN(C1CCc2c(CC(=O)O)c3cccnc3n2C1)S(=O)(=O)c1ccc(F)cc1 (single isomer, unassigned) [Example 4B] | 0 | – |
| CCCCC[C@H](O)/C=C/[C@H]1C(=O)C[C@H](O)[C@@H]1C/C=C\CCCC(=O)O [PGD2, Prostaglandin D2] | – | 4.1 |
